Experiments:
brain TSPO [1] = biological target: T1, brain TSPO (Homo sapiens, UniProt P30536); experiment: Brain occupancy using PET in humans (1), [11C] PBR28, Emax model; type: in vivo
T1 construct: from tissue; host or cells: living human brain (PET, healthy adults)
Procedure: Male and female healthy adults were used. The compound of the present invention (6 to 200 mg) was once orally administered. Before and after 24 hours of the administration, a PET measurement using [^11C] PBR28 was performed in the following manner.
Measurement equipment: PET; ECAT HR+(Siemens) Measurement methods: 90 minutes blank measurement and 10 to 15 minutes transmission measurement were performed using 68Ge/68Ga calibration source. Next, [^11C] PBR28 was intravenously bolus administrated over a period of about 30 seconds. Emission measurement (total 90 minutes, 26 frames) was started together with the administration while an arterial blood sampling for measuring the plasma concentration.
Brain occupancy, relative to the binding potential (BP) before the administration, was calculated by calculating the BP of each interest area from the brain radioactivity concentration time change of [^11C] PBR28, nonspecific binding amount and arterial blood plasma radioactivity which was corrected in a non-metabolic rate (n=3 to 4 in each group). Further, the average TSPO occupancy of all interest areas was determined from the Lassen plot that obtained by the horizontal axis of the distribution volume before administration and the vertical axis of the value obtained by subtracting the distribution volume after administration from the distribution volume before the administration for each interest area. […] As parameters in this model, Emax (a maximal effect) and EC50 (ng/mL) (a blood concentration which can be achieved 50% Emax) were used. An analysis software NONMEM7.1.2 (ICON Development Solutions) was used in this analysis. Parameters and formula of Emax model were shown in the following.
TSPO Occupancy (%)=(θ1×X)/(θ2+X)
X=Plasma concentration (ng/mL)

[2] = test system: female diarrhea-type IBS patients; experiment: Efficacy trial in humans 1: double-blind parallel-group study in IBS; type: in vivo, human; conditions: for Daily responder (%), Abdominal Pain and Stool Consistency: placebo 6.5; for Daily responder (%), Stool Consistency: placebo 10.9; for Weekly responder (%), Abdominal Pain and Stool Consistency: placebo 21.7; for Weekly responder (%), Stool Consistency: placebo 28.3; for Daily responder (%), Abdominal Pain: placebo 37; for Weekly responder (%), Abdominal Pain: placebo 39.1; for increase in the number of days per week with no abdominal pain: 4th week of treatment period, placebo 0.61
Procedure: As a clinical trail, a double-bind, parallel-group study was conducted under the following conditions in female diarrhea-type IBS patients.
PURPOSE: Confirmation of efficacy against clinical symptoms of IBS METHODS: This study was conducted at 49 centers in the United States and recruited 200 patients (aged 18-65 years) with female diarrhea-type IBS patients according to Rome III criteria (Gastroenterology, Vol. 130, p. 1480-1491, 2006). Patients were randomly assigned to any of the following three treatment groups (1:1:1 ratio) and received orally administration once-daily for 4 weeks. Patients recorded their IBS symptoms on a daily basis in an e-diary during a 2-week pre-treatment, the 4-week treatment period and for 4 weeks post-treatment. Safety monitoring was performed throughout the study. The primary endpoints were change from baseline (pre-treatment period) to week 4 in stool consistency (Bristol Stool Scale; BSS), stool frequency and abdominal pain (Numerical Rating Scale; NRS). Secondary endpoints included FDA responder analyses (Guidance for Industry Irritable Bowel Syndrome—Clinical Evaluation of Drugs for Treatment).
(1) Placebo group (2) The compound of the present invention (20 mg treatment) group (3) The compound of the present invention (60 mg treatment) group ENDPOINTS: IBS symptoms (abdominal pain, stool consistency, stool frequency, faecal urgency and severity), QOL, psychological symptoms, safety, pharmacokinetics and biomarker RESULTS: Baseline value of patient layer and each of the parameters (stool consistency, stool frequency and abdominal pain) were similar in each treatment group. […] Further, a greater percentage of patients met responder criteria among patients in 60 mg treatment group of the compound of the present invention compared to placebo treatment group (Table 3, FIG. 10 and FIG. 11). On the other hand, the increase in the number of days per week with no abdominal pain at the 4th week of treatment period were 0.61 in placebo treatment group, 1.16 in 20 mg treatment group and 1.51 in 60 mg treatment group.
The weekly responder of abdominal pain and stool consistency was defined as a patient who met the both criteria of the above-mentioned abdominal pain score and stool consistency.

brain TSPO [3] = biological target: T1, brain TSPO; experiment: Brain occupancy using PET in humans (2), different analytical method, Bmax fixed to 1; type: in vivo; conditions: [11C] PBR28, Emax model with Bmax fixed to 1, mean plasma concentration, SAS, read-out: Ki, blood concentration which can be achieved 50% Bmax (converted)
Procedure: The data in Biological example 8 were analyzed in a different analytical method. Brain occupancy, relative to the binding potential (BP) before administration, was calculated by calculating the BP of each interest area from the brain radioactivity concentration time change of [^11C] PBR28, nonspecific binding amount and arterial blood plasma radioactivity which was corrected in a non-metabolic rate (n=3 to 4 in each group). Further, the average TSPO occupancy of all interest areas was determined from the Lassen plot that obtained by the horizontal axis of the distribution volume before administration (Vt baseline) and the vertical axis of the value obtained by subtracting the distribution volume after administration from the distribution volume before the administration (Vt baseline−Vt onmed) for each interest area. […] As parameters in this model, Bmax (a maximum number of binding) and Ki (ng/mL) (a blood concentration which can be achieved 50% Bmax) were used. Bmax was fixed to 1 in this analysis, and SAS Version 9.2 (SAS Institute) was used as an analysis software. Parameters and formula of Emax model were shown in the following.
TSPO Occupancy (%)=Bmax×Cave/(Ki+Cave)×100
Cave=Mean plasma concentration (ng/mL)

[4] = test system: female diarrhea-type IBS patients; experiment: HAM-A (Hamilton Anxiety Scale) in the clinical trial of Biological example 10; type: in vivo, human; conditions: 60 mg treatment
Procedure: In the clinical trial of Biological example 10, the therapeutic effect of the compound of the present invention 60 mg treatment on depression and anxiety-related diseases were evaluated using PSS (Perceived Stress Scale) (refer to Journal of Health and Social Behavior, 24, 386-396, 1983), HAM-A (Hamilton Anxiety Scale) (refer to The British journal of medical psychology, 32, 50-55, 1959) and HAM-D (Hamilton Depression scale) (refer to Journal of Neurology, Neurosurgery and Psychiatry, 23, 56-62, 1960) as rating scales.

[5] = 20 mg oral once daily 4 weeks, n = 41
[6] = 60 mg oral once daily 4 weeks, n = 45

T1 sequence (P30536 whole entry): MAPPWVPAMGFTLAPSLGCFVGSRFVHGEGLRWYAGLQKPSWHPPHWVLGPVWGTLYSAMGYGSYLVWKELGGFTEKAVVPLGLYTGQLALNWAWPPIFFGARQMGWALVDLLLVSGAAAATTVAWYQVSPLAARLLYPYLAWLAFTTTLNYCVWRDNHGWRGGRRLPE

With `COc1cc(Cl)ccc1[C@H]1c2[nH]c3cccc(F)c3c2C2(CC2)CN1C(C)=O` [the compound of the present invention, (1S)-2-acetyl-1-(4-chloro-2-methoxyphenyl)-5-fluoro-1,2,3,9-tetrahydrospiro[β-carboline-4,1′-cyclopropane]] the “plasma concentration that makes brain TSPO occupancy reach about 50%” value (brain TSPO [1]; Emax model) was “about 15 ng/mL”, the “plasma concentration that makes brain TSPO occupancy reach about 85%” value (brain TSPO [1]; Emax model) was “about 150 ng/mL” and the “θ1 (=Emax), maximal effect of Emax model of TSPO occupancy” value (brain TSPO [1]; [11C] PBR28, 6 to 200 mg single oral dose, NONMEM, in % (unit assumed)) was 92.8±3.59. For the same molecule, the EC50 (brain TSPO [1]; [11C] PBR28, 6 to 200 mg single oral dose, NONMEM, read-out: θ2 (=EC50), blood concentration which can be achieved 50% Emax (converted)) was 34.3 nM, the “tolerability and safety profile” value ([2]; 20 mg or 60 mg oral once daily for 4 weeks) was “well-tolerated and had a favourable safety profile” and the “Daily responder (%), Abdominal Pain and Stool Consistency” value [2, 5] was 14.6%. The “Daily responder (%), Stool Consistency” value [2, 5] was 17.1%, the “Weekly responder (%), Abdominal Pain and Stool Consistency” value [2, 5] was 22% and the “Weekly responder (%), Stool Consistency” value [2, 5] was 41.5%. The “Daily responder (%), Abdominal Pain” value [2, 5] was 36.6%, the “Weekly responder (%), Abdominal Pain” value [2, 5] was 39% and the “Daily responder (%), Abdominal Pain and Stool Consistency” value [2, 6] was 20%. For the same molecule, the “Daily responder (%), Stool Consistency” value [2, 6] was 26.7%, the “Weekly responder (%), Abdominal Pain and Stool Consistency” value [2, 6] was 37.8% and the “Weekly responder (%), Stool Consistency” value [2, 6] was 48.9%. The “Daily responder (%), Abdominal Pain” value [2, 6] was 53.3%, the “Weekly responder (%), Abdominal Pain” value [2, 6] was 57.8% and the “number of days per week with at least one stool having a BSS classification of 6 or 7, vs placebo” value ([2]; 60 mg treatment group, over the 4-week treatment period (FIG. 8)) was “Improvements over placebo treatment group”. The “average weekly score of the worst abdominal pain experienced during the past 24 hours, vs placebo” value ([2]; 60 mg treatment group, over the 4-week treatment period (FIG. 9)) was “Improvements over placebo treatment group”, the “increase in the number of days per week with no abdominal pain” value ([2]; 20 mg treatment group) was 1.16 and the “increase in the number of days per week with no abdominal pain” value ([2]; 60 mg treatment group) was 1.51. The Ki (brain TSPO [3]) was 34.1 nM, the “HAM-A score, 4th week” value ([4]; Patient A, baseline 18) was 4 and the “HAM-A score, Amount of change from baseline” value (“HAM-A score, Amount of change” below) ([4]; Patient A, baseline 18, 4th week) was −14. The “HAM-A score, 4th week” value ([4]; Patient B, baseline 23) was 1, the “HAM-A score, Amount of change” value ([4]; Patient B, baseline 23, 4th week) was −22 and the “HAM-A score, 4th week” value ([4]; Patient D, baseline 22) was 4. For the same molecule, the “HAM-A score, Amount of change” value ([4]; Patient D, baseline 22, 4th week) was −18, the “HAM-A score, 4th week” value ([4]; Patient E, baseline 18) was 5 and the “HAM-A score, Amount of change” value ([4]; Patient E, baseline 18, 4th week) was −13.
